The subject of the test is integrin α2β1 expression in A549 cells. The test can be described thus: Integrin α2β1 expression in A549 cells after doxorubicin treatment. Format: cell-based, human. Particulars: doxorubicin 4 μg/mL.

Consider `COc1cccc2c1C(=O)c1c(O)c3c(c(O)c1C2=O)C[C@@](O)(C(=O)CO)C[C@@H]3O[C@H]1C[C@H](N)[C@H](O)[C@H](C)O1` [doxorubicin], for which, under “48 h, semi-quantitative, p < 0.01”, the “integrin α2 and β1 protein levels by Western blot after treatment” value was “markedly higher level of both integrin proteins”. For the same compound, under “48 h vs wild-type”, the “integrin α2β1 expression by FACS after treatment” value is recorded as “clear shift in the abundance of integrin α2β1”.
